Measurements reported in PubChem BioAssay (NCI).
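Compound exposure: 48 hours, 5 concentrations, 96-well plates. TGI marks complete inhibition of growth.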

Key:
Experiment in all cases: NCI tumour cell line growth inhibition, 48 h
SNB-19 CNS = tested on: SNB-19 CNS
SF-295 CNS = tested on: SF-295 CNS
SK-MEL-5 melanoma = tested on: SK-MEL-5 melanoma
MCF7 breast = tested on: MCF7 breast
K-562 leukemia = tested on: K-562 leukemia
MDA-N = tested on: MDA-N
786-0 renal = tested on: 786-0 renal
COLO 205 colon = tested on: COLO 205 colon
HCC-2998 colon = tested on: HCC-2998 colon
NCI/ADR-RES ovarian = tested on: NCI/ADR-RES ovarian
EKVX NSCLC = tested on: EKVX NSCLC
HCT-15 colon = tested on: HCT-15 colon
SK-OV-3 ovarian = tested on: SK-OV-3 ovarian
RXF 393 renal = tested on: RXF 393 renal
MDA-MB-435 = tested on: MDA-MB-435
SK-MEL-28 melanoma = tested on: SK-MEL-28 melanoma

| SMILES | TGI (SNB-19 CNS) [µM] | TGI (SF-295 CNS) [µM] | TGI (SK-MEL-5 melanoma) [µM] | TGI (MCF7 breast) [µM] | TGI (K-562 leukemia) [µM] | TGI (MDA-N) [µM] | TGI (786-0 renal) [µM] | TGI (COLO 205 colon) [µM] | TGI (HCC-2998 colon) [µM] | TGI (NCI/ADR-RES ovarian) [µM] | TGI (EKVX NSCLC) [µM] | TGI (HCT-15 colon) [µM] | TGI (SK-OV-3 ovarian) [µM] | TGI (RXF 393 renal) [µM] | TGI (MDA-MB-435) [µM] | TGI (SK-MEL-28 melanoma) [µM] |
| --- | --- | --- | --- | --- | --- | --- | --- | --- | --- | --- | --- | --- | --- | --- | --- | --- |
| C=C(CC)C[C@@H]1C[C@]2(C(=O)OC)c3[nH]c4ccccc4c3CCN2C1=O | > 100 | 31.1 | 31.3 | 47.2 | 58.1 | 35.5 | 33.5 | > 100 | 34.1 | 51.1 | 85.5 | 34.5 | 63.9 | 27.7 | 43.7 | 39.9 |
| Nc1nc(NCCOCP(=O)(O)O)c(N)c(=O)[nH]1 | > 100 | > 100 | > 100 | > 100 | > 100 | > 100 | > 100 | > 100 | > 100 | > 100 | > 100 | > 100 | > 100 | > 100 | > 100 | > 100 |
| S=C(Nc1cccc(C2(N3CCCCC3)CCCCC2)c1)Nc1cccc(C2(N3CCCCC3)CCCCC2)c1 | > 100 | > 100 | 33.6 | 64.1 | 27.5 | 33.8 | 30.5 | 37.6 | 6.07 | > 100 | > 100 | > 100 | > 100 | 29.7 | 30.6 | 35.3 |
| CCCc1cc(-c2ccc(-c3cc(CCC)c(C=O)[nH]3)s2)[nH]c1C=O | > 100 | > 92.4 | > 100 | > 100 | > 100 | > 100 | > 100 | > 100 | 22.9 | > 100 | > 100 | > 100 | > 100 | > 87.9 | > 100 | > 100 |
| CCCCCCC(=O)OC[n+]1cccc(-c2c(COC(=O)NC(C)C)c(COC(=O)NC(C)C)c3n2CCC3)c1 | > 100 | > 100 | > 88.9 | > 100 | > 100 | > 100 | > 69.8 | > 100 | > 100 | > 100 | > 100 | > 100 | > 100 | 51.5 | > 100 | > 100 |
| CC1(C)CC2(C)ON=C(c3ccccc3)N2c2ccccc2N1 (stereo not drawn) | 68.1 | > 100 | 30.7 | 47 | 52.3 | 47.9 | 57.3 | 45.9 | > 100 | 74.6 | 77 | > 100 | 53 | 54.5 | 39.8 | 57.5 |
| CCOC(=O)NC(=S)NC(C)c1ccccc1 (stereo not drawn) | > 100 | > 100 | > 100 | > 100 | > 100 | > 100 | > 100 | > 100 | > 100 | > 100 | > 100 | > 100 | > 100 | > 100 | > 100 | > 100 |
| COC(=O)CCC(C)[C@H]1CCC2C3C(C[C@H](OC(C)=O)[C@@]21C)[C@@]1(C)CCC2(C[C@H]1C[C@H]3OC(C)=O)OOC1(CCCCC1)OO2 (stereo partly drawn) | > 100 | 80.4 | > 100 | > 100 | > 100 | > 100 | 48.6 | > 100 | > 100 | > 100 | 18.8 | > 100 | > 100 | > 100 | > 100 | > 100 |
